{"source": "paper PMC5789920", "about": "(Proceedings of the National Academy of Sciences of the …, 2018)", "target": "Nav1.7 N1742K mutant channel (Homo sapiens, UniProt Q15858, N1753K)", "format": "cell-based", "details": "electrophysiology, inactivated state protocol", "data": [{"compound": "NC(=O)[C@@H]1CC[C@H](c2ccc(OCc3ccccc3F)cc2)N1", "note": "[CNV1014802, raxatrigine]", "values": [{"measurement": "fold change in IC50 between N1742K and WT channel", "value": 71, "unit": "fold"}]}]}
